{"source": "patent US11053235B2", "about": "“Substituted 1,4-dihydropyrimidines for the treatment of HBV infection or HBV-induced diseases” (Janssen Sciences Ireland Unlimited Company, priority 2018, dated 2021)", "key": {"HBV": {"system": "HBV", "assay": "Anti-viral assay in HepG2.2.15 cells: HBV inhibitory activity (HBV DNA in culture medium by q-PCR)", "assay_type": "cell-based", "conditions": "Hepatitis B virus, HepG2.2.15, 144 h, HepG2.2.15 cells, 6 days treatment, HBV DNA in culture medium by q-PCR, highest concentration 10 uM; read-out: EC50", "summary_of_the_method": "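HepG2.2.15 cells seeded at 40,000/well in 2% FBS medium, dosed next day for 6 days (medium refreshed once midway); 8-point 3-fold dilutions from 10 uM top. HBV DNA in culture medium extracted and quantified by q-PCR; EC50 calculated from dose-response.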"}, "[1]": {"assay": "Cytotoxicity determination in HepG2.2.15 cells (CCK-8)", "assay_type": "cell-based", "conditions": "human, 6 days treatment, CCK-8, highest concentration 100 uM", "summary_of_the_method": "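HepG2.2.15 cells seeded at 5,000 cells/well in 2% FBS medium and exposed to compounds for 6 days (medium refreshed once), 8 three-fold dilutions from 100 uM. Viability read by CCK-8 after 2.5 h at 37 °C, absorbance 450 nm with 630 nm reference; CC50 calculated.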"}}, "note": "pEC50: −log10 of the molar value.", "data": [{"smiles": "COC(=O)C1=C(C2CCN(c3ncc(C(=O)O)s3)CC2)NC(c2nccs2)=NC1c1ccc(F)c(F)c1Br", "note": "(single isomer, unassigned) [II-82-B, 2-(4-(6-(2-Bromo-3,4-difluorophenyl)-5-(methoxycarbonyl)-2-(thiazol-2-yl)-3,6-dihydropyrimidin-4-yl)piperidin-1-yl)thiazole-5-carboxylic Acid]", "values": [{"measurement": "pEC50", "setting": "HBV", "result": 8.04}, {"measurement": "CC50 at 6 days", "setting": "[1]", "result": 9.48, "unit": "µM"}]}, {"smiles": "COC(=O)C1=C(C2CCN(c3ncc(C(=O)O)s3)CC2)NC(c2nccs2)=NC1c1cccc(F)c1Br", "note": "(single isomer, unassigned) [II-83-B, 2-(4-(6-(2-Bromo-3-fluorophenyl)-5-(methoxycarbonyl)-2-(thiazol-2-yl)-3,6-dihydropyrimidin-4-yl)piperidin-1-yl)thiazole-5-carboxylic Acid]", "values": [{"measurement": "pEC50", "setting": "HBV", "result": 7.80}, {"measurement": "CC50 at 6 days", "setting": "[1]", "result": 2.84, "unit": "µM"}]}, {"smiles": "COC(=O)C1=C(C2CCN(c3ncc(C(=O)O)s3)CC2)NC(c2nccs2)=NC1c1ccc(F)cc1Br", "note": "(single isomer, unassigned) [II-84-B, 2-(4-(6-(2-Bromo-4-fluorophenyl)-5-(methoxycarbonyl)-2-(thiazol-2-yl)-3,6-dihydropyrimidin-4-yl)piperidin-1-yl)thiazole-5-carboxylic Acid]", "values": [{"measurement": "pEC50", "setting": "HBV", "result": 8.19}, {"measurement": "CC50 at 6 days", "setting": "[1]", "result": 14.9, "unit": "µM"}]}, {"smiles": "CCOC(=O)C1=C(C2CCN(c3nc(C(=O)O)co3)C2)NC(c2nccs2)=NC1c1ccc(F)c(F)c1Cl", "note": "(single isomer, unassigned) [II-85-A, 2-(3-(6-(2-chloro-3,4-difluorophenyl)-5-(ethoxycarbonyl)-2-(thiazol-2-yl)-3,6-dihydropyrimidin-4-yl)pyrrolidin-1-yl)oxazole-4-carboxylic Acid]", "values": [{"measurement": "pEC50", "setting": "HBV", "result": 6.14}, {"measurement": "CC50 at 6 days", "setting": "[1]", "result": 4.49, "unit": "µM"}]}, {"smiles": "CCOC(=O)C1=C(C2CN(c3nc(C(=O)O)co3)C2)NC(c2nccs2)=NC1c1ccc(F)c(F)c1Cl", "note": "(single isomer, unassigned) [II-86-B, 2-(3-(6-(2-Chloro-3,4-difluorophenyl)-5-(ethoxycarbonyl)-2-(thiazol-2-yl)-3,6-dihydropyrimidin-4-yl)azetidin-1-yl)oxazole-4-carboxylic Acid]", "values": [{"measurement": "pEC50", "setting": "HBV", "result": 5.54}, {"measurement": "CC50 at 6 days", "setting": "[1]", "result": 9.4, "unit": "µM"}]}, {"smiles": "COC(=O)C1=C(C2CN(C(=O)c3ccccc3)C2)NC(c2nccs2)=NC1c1ccc(F)cc1Cl", "note": "(single isomer, unassigned) [II-87-A, Methyl 6-(1-benzoylazetidin-3-yl)-4-(2-chloro-4-fluorophenyl)-2-(thiazol-2-yl)-1,4-dihydropyrimidine-5-carboxylate]", "values": [{"measurement": "pEC50", "setting": "HBV", "result": 5.40}, {"measurement": "CC50 at 6 days", "setting": "[1]", "result": 9.86, "unit": "µM"}]}, {"smiles": "COC(=O)C1=C(C2CN(C(=O)c3cnoc3C)C2)NC(c2nccs2)=NC1c1ccc(F)cc1Cl", "note": "(single isomer, unassigned) [II-88-B, methyl 4-(2-chloro-4-fluorophenyl)-6-(1-(5-methylisoxazole-4-carbonyl)azetidin-3-yl)-2-(thiazol-2-yl)-1,4-dihydropyrimidine-5-carboxylate]", "values": [{"measurement": "pEC50", "setting": "HBV", "result": 5.69}, {"measurement": "CC50 at 6 days", "setting": "[1]", "result": 9.96, "unit": "µM"}]}, {"smiles": "COC(=O)C1=C(C2CCN(c3cc(C(=O)O)c(C)cn3)CC2)NC(c2nccs2)=NC1c1ccc(F)cc1Cl", "note": "(single isomer, unassigned) [II-89-B, 2-(4-(6-(2-Chloro-4-fluorophenyl)-5-(methoxycarbonyl)-2-(thiazol-2-yl)-3,6-dihydropyrimidin-4-yl)piperidin-1-yl)-5-methylisonicotinic Acid]", "values": [{"measurement": "pEC50", "setting": "HBV", "result": 8.05}, {"measurement": "CC50 at 6 days", "setting": "[1]", "result": 20.3, "unit": "µM"}]}, {"smiles": "COC(=O)C1=C(C2CCN(c3ncc(N4CCC(C(=O)O)CC4)cn3)CC2)NC(c2nccs2)=NC1c1ccc(F)cc1Cl", "note": "(single isomer, unassigned) [II-90-B, 1-(2-(4-(6-(2-chloro-4-fluorophenyl)-5-(methoxycarbonyl)-2-(thiazol-2-yl)-3,6-dihydropyrimidin-4-yl)piperidin-1-yl)pyrimidin-5-yl)piperidine-4-carboxylic acid]", "values": [{"measurement": "pEC50", "setting": "HBV", "result": 8.27}, {"measurement": "CC50 at 6 days", "setting": "[1]", "result": 19, "unit": "µM"}]}, {"smiles": "COC(=O)C1=C(C2CCN(c3ncc(N(C)C)c(C(=O)O)n3)CC2)NC(c2nccs2)=NC1c1ccc(F)c(F)c1Cl", "note": "(single isomer, unassigned) [II-91-B, 2-(4-(6-(2-chloro-3,4-difluorophenyl)-5-(methoxycarbonyl)-2-(thiazol-2-yl)-3,6-dihydropyrimidin-4-yl)piperidin-1-yl)-5-(dimethylamino)pyrimidine-4-carboxylic Acid]", "values": [{"measurement": "pEC50", "setting": "HBV", "result": 7.92}, {"measurement": "CC50 at 6 days", "setting": "[1]", "result": 26.1, "unit": "µM"}]}, {"smiles": "COC(=O)C1=C(C2CCN(c3ncc(N)c(C(=O)O)n3)CC2)NC(c2nccs2)=NC1c1ccc(F)c(F)c1Cl", "note": "(single isomer, unassigned) [II-92-B, 5-amino-2-(4-(6-(2-chloro-3,4-difluorophenyl)-5-(methoxycarbonyl)-2-(thiazol-2-yl)-3,6-dihydropyrimidin-4-yl)piperidin-1-yl)pyrimidine-4-carboxylic Acid]", "values": [{"measurement": "pEC50", "setting": "HBV", "result": 8.15}, {"measurement": "CC50 at 6 days", "setting": "[1]", "result": 18.3, "unit": "µM"}]}, {"smiles": "COC(=O)C1=C(C2CCN(c3cc(C(=O)O)c(N(C)C)cn3)CC2)NC(c2nccs2)=NC1c1ccc(F)c(F)c1Cl", "note": "(single isomer, unassigned) [II-93-B, 2-(4-(6-(2-chloro-3,4-difluorophenyl)-5-(methoxycarbonyl)-2-(thiazol-2-yl)-3,6-dihydropyrimidin-4-yl)piperidin-1-yl)-5-(dimethylamino)isonicotinic Acid]", "values": [{"measurement": "pEC50", "setting": "HBV", "result": 8.18}, {"measurement": "CC50 at 6 days", "setting": "[1]", "result": 28.9, "unit": "µM"}]}, {"smiles": "COC(=O)C1=C(C2CCN(c3ncc(C)c(C(=O)O)n3)CC2)NC(c2nccs2)=NC1c1ccc(F)c(F)c1C", "note": "(single isomer, unassigned) [II-94-B, 2-(4-(6-(3,4-Difluoro-2-methylphenyl)-5-(methoxycarbonyl)-2-(thiazol-2-yl)-3,6-dihydropyrimidin-4-yl)piperidin-1-yl)-5-methylpyrimidine-4-carboxylic Acid]", "values": [{"measurement": "pEC50", "setting": "HBV", "result": 8.21}, {"measurement": "CC50 at 6 days", "setting": "[1]", "result": 26.8, "unit": "µM"}]}, {"smiles": "COC(=O)C1=C(C2CCN(c3ncc(OC)c(C(=O)O)n3)CC2)NC(c2nccs2)=NC1c1ccc(F)c(F)c1C", "note": "(single isomer, unassigned) [II-95-B, 2-(4-(6-(3,4-Difluoro-2-methylphenyl)-5-(methoxycarbonyl)-2-(thiazol-2-yl)-3,6-dihydropyrimidin-4-yl)piperidin-1-yl)-5-methoxypyrimidine-4-carboxylic Acid]", "values": [{"measurement": "pEC50", "setting": "HBV", "result": 8.07}, {"measurement": "CC50 at 6 days", "setting": "[1]", "result": 25.8, "unit": "µM"}]}, {"smiles": "CCOC(=O)C1=C(C2CCN(c3ncc(OCC)c(C(=O)O)n3)CC2)NC(c2nccs2)=NC1c1ccc(F)c(F)c1Cl", "note": "(single isomer, unassigned) [II-96-B, 2-(4-(6-(2-chloro-3,4-difluorophenyl)-5-(ethoxycarbonyl)-2-(thiazol-2-yl)-3,6-dihydropyrimidin-4-yl)piperidin-1-yl)-5-ethoxypyrimidine-4-carboxylic Acid]", "values": [{"measurement": "pEC50", "setting": "HBV", "result": 8.29}, {"measurement": "CC50 at 6 days", "setting": "[1]", "result": 16.3, "unit": "µM"}]}, {"smiles": "CCOC(=O)C1=C(C2CCN(c3ncc(N(C)C)c(C(=O)O)n3)CC2)NC(c2nccs2)=NC1c1cccc(F)c1Br", "note": "(single isomer, unassigned) [II-97-B, 2-(4-(6-(2-Bromo-3-fluorophenyl)-5-(ethoxycarbonyl)-2-(thiazol-2-yl)-3,6-dihydropyrimidin-4-yl)piperidin-1-yl)-5-(dimethylamino)pyrimidine-4-carboxylic Acid]", "values": [{"measurement": "pEC50", "setting": "HBV", "result": 7.85}, {"measurement": "CC50 at 6 days", "setting": "[1]", "result": 27.6, "unit": "µM"}]}, {"smiles": "COC(=O)C1=C(C2CCN(c3ncc(C)c(C(=O)O)n3)CC2)NC(c2nccs2)=NC1c1cccc(F)c1Br", "note": "(single isomer, unassigned) [II-98-B, 2-(4-(6-(2-Bromo-3-fluorophenyl)-5-(methoxycarbonyl)-2-(thiazol-2-yl)-3,6-dihydropyrimidin-4-yl)piperidin-1-yl)-5-methylpyrimidine-4-carboxylic Acid]", "values": [{"measurement": "pEC50", "setting": "HBV", "result": 7.70}, {"measurement": "CC50 at 6 days", "setting": "[1]", "result": 21.4, "unit": "µM"}]}, {"smiles": "COC(=O)C1=C(C2CCN(c3ncc(C)c(C(=O)O)n3)CC2)NC(c2nccs2)=NC1c1ccc(F)cc1Br", "note": "(single isomer, unassigned) [II-99-B, 2-(4-(6-(2-Bromo-4-fluorophenyl)-5-(methoxycarbonyl)-2-(thiazol-2-yl)-3,6-dihydropyrimidin-4-yl)piperidin-1-yl)-5-methylpyrimidine-4-carboxylic Acid]", "values": [{"measurement": "pEC50", "setting": "HBV", "result": 8.14}, {"measurement": "CC50 at 6 days", "setting": "[1]", "result": 20.7, "unit": "µM"}]}, {"smiles": "CCOC(=O)C1=C(C2CCN(c3ncc(N(C)C)c(C(=O)O)n3)CC2)NC(c2nccs2)=NC1c1ccc(F)cc1Br", "note": "(single isomer, unassigned) [II-100-B, 2-(4-(6-(2-bromo-4-fluorophenyl)-5-(ethoxycarbonyl)-2-(thiazol-2-yl)-3,6-dihydropyrimidin-4-yl)piperidin-1-yl)-5-(dimethylamino)pyrimidine-4-carboxylic Acid]", "values": [{"measurement": "pEC50", "setting": "HBV", "result": 7.66}, {"measurement": "CC50 at 6 days", "setting": "[1]", "result": 24.5, "unit": "µM"}]}, {"smiles": "COC(=O)C1=C(C2CCN(c3ccc(CCC(=O)O)cn3)CC2)NC(c2nccs2)=NC1c1ccc(F)cc1Cl", "note": "(single isomer, unassigned) [II-101-B, 3-(6-(4-(6-(2-Chloro-4-fluorophenyl)-5-(methoxycarbonyl)-2-(thiazol-2-yl)-3,6-dihydropyrimidin-4-yl)piperidin-1-yl)pyridin-3-yl)propanoic Acid]", "values": [{"measurement": "pEC50", "setting": "HBV", "result": "> 8.34"}, {"measurement": "CC50 at 6 days", "setting": "[1]", "result": 16.6, "unit": "µM"}]}, {"smiles": "CCOC(=O)Cc1ccnc(N2CCC(C3=C(C(=O)OC)C(c4ccc(F)cc4Cl)N=C(c4nccs4)N3)CC2)n1", "note": "(single isomer, unassigned) [XI-13-S, Methyl 4-(2-chloro-4-fluorophenyl)-6-(1-(4-(2-ethoxy-2-oxoethyl)pyrimidin-2-yl)piperidin-4-yl)-2-(thiazol-2-yl)-1,4-dihydropyrimidine-5-carboxylate]", "values": [{"measurement": "pEC50", "setting": "HBV", "result": 6.82}, {"measurement": "CC50 at 6 days", "setting": "[1]", "result": "> 100", "unit": "µM"}]}, {"smiles": "CCOC(=O)C1=C(C2CCN(c3nc(C(=O)OCC)co3)C2)NC(c2nccs2)=NC1c1ccc(F)c(F)c1Cl", "note": "(single isomer, unassigned) [XI-85-M, Ethyl 2-(3-(6-(2-chloro-3,4-difluorophenyl)-5-(ethoxycarbonyl)-2-(thiazol-2-yl)-3,6-dihydropyrimidin-4-yl)pyrrolidin-1-yl)oxazole-4-carboxylate]", "values": [{"measurement": "pEC50", "setting": "HBV", "result": 6.11}, {"measurement": "CC50 at 6 days", "setting": "[1]", "result": 11.6, "unit": "µM"}]}]}
